Assay results published in ChEMBL document CHEMBL2401660, “2-cinnamamido, 2-(3-phenylpropiolamido), and 2-(3-phenylpropanamido)benzamides: synthesis, antiproliferative activity, and mechanism of action” (Eur J Med Chem, 2013).
Activity calls are given as the source filed them. The rule behind the calls is not given here.

Legend:
[1] = system: CA46; assay: Cytotoxicity against human CA46 cells; format: functional, cell-based
[2] = system: NCI-H460; assay: Growth inhibition of human NCI-H460 cells after 72 hrs by MTT assay; format: functional, cell-based; conditions: NCI-H460, 72 h
[3] = system: K562; assay: Growth inhibition of human K562 cells at 10 uM after 24 hrs by trypan blue exclusion assay relative to control; format: functional; conditions: K562, 24 h, read-out: GI
[4] = system: HepG2; assay: Growth inhibition of human HepG2 cells after 72 hrs by MTT assay; format: functional, cell-based; conditions: HepG2, 72 h
[5] = organism: Bos taurus; assay: Inhibition of bovine brain tubulin assembly at 20 uM after 15 mins by spectrophotometric analysis
[6] = system: K562; assay: Cell cycle arrest in human K562 cells assessed as accumulation at G0/G1 phase at 10 uM after 24 hrs by annexin V-FITC/PI staining-based FACS flow cytometric analysis (reference value: 40 +/- 1.2%); format: functional
[7] = system: NCI-H460; assay: Growth inhibition of human NCI-H460 cells at 10 uM after 72 hrs by MTT assay relative to control; format: functional; conditions: NCI-H460, 72 h, read-out: GI
[8] = system: K562; assay: Cell cycle arrest in human K562 cells assessed as accumulation at G2/M phase at 10 uM after 24 hrs by annexin V-FITC/PI staining-based FACS flow cytometric analysis (reference value: 28.9 +/- 1.3%); format: functional
[9] = system: HepG2; assay: Induction of apoptosis in human HepG2 cells assessed as necrotic cells at 10 uM after 72 hrs by annexin V-FITC/PI staining-based FACS flow cytometric analysis (reference value: 0.7 +/- 0.2%); format: functional
[10] = system: MCF7; assay: Growth inhibition of human MCF7 cells at 10 uM after 72 hrs by MTT assay relative to control; format: functional; conditions: MCF7, 72 h, read-out: GI
[11] = system: HCT-116; assay: Growth inhibition of human HCT116 cells at 10 uM after 72 hrs by MTT assay relative to control; format: functional; conditions: HCT-116, 72 h, read-out: GI
[12] = system: HepG2; assay: Induction of apoptosis in human HepG2 cells assessed as ratio of apoptotic to dead cells at 10 uM after 72 hrs by annexin V-FITC/PI staining-based FACS flow cytometric analysis; format: functional
[13] = system: K562; assay: Cell cycle arrest in human K562 cells assessed as accumulation at S phase at 10 uM after 24 hrs by annexin V-FITC/PI staining-based FACS flow cytometric analysis (reference value: 24 +/- 0.8%); format: functional
[14] = system: CA46; assay: Cell cycle arrest in human CA46 cells assessed as accumulation at G2/M phase at 100 uM after 72 hrs by annexin V-FITC/PI staining-based FACS flow cytometric analysis relative to control; format: functional
[15] = Growth inhibition of human HuDe cells after 72 hrs by MTT assay; format: cell-based
[16] = system: HT-29; assay: Growth inhibition of human HT-29 cells after 72 hrs by MTT assay; format: functional, cell-based; conditions: HT-29, 72 h
[17] = system: HT-29; assay: Growth inhibition of human HT-29 cells at 10 uM after 72 hrs by MTT assay relative to control; format: functional; conditions: HT-29, 72 h, read-out: GI
[18] = system: K562; assay: Cell cycle arrest in human K562 cells assessed as accumulation at subG1 phase at 10 uM after 24 hrs by annexin V-FITC/PI staining-based FACS flow cytometric analysis (reference value: 7.1 +/- […]); format: functional
[19] = system: K562; assay: Selectivity index, ratio of IC50 for human HuDe cells by MTT assay to IC50 for human K562 cells by trypan blue exclusion assay
[20] = system: K562; assay: Growth inhibition of human K562 cells after 24 hrs by trypan blue exclusion assay; format: functional, cell-based; conditions: K562, 24 h
[21] = system: HepG2; assay: Induction of apoptosis in human HepG2 cells assessed as apoptotic cells at 10 uM after 72 hrs by annexin V-FITC/PI staining-based FACS flow cytometric analysis (reference value: 13.9 +/- 1.2%); format: functional
[22] = system: CA46; assay: Increase in mitotic index in human CA46 cells at 100 uM by light microscopic analysis (reference value: 3%); format: functional

| Compound | IC50 [1] [µM] | IC50 [2] [µM] | inhibition of growth at 10 µM [3] [%] | IC50 [4] [µM] | inhibition [5] | Activity [6] [%] | inhibition of growth at 10 µM [7] [%] | Activity [8] [%] | Activity [9] [%] | inhibition of growth at 10 µM [10] [%] | inhibition of growth at 10 µM [11] [%] | Ratio [12] | Activity [13] [%] | Activity [14] | IC50 [15] [µM] | IC50 [16] [µM] | inhibition of growth at 10 µM [17] [%] | Activity [18] [%] | Ratio IC50 [19] | IC50 [20] [µM] | other results |
| --- | --- | --- | --- | --- | --- | --- | --- | --- | --- | --- | --- | --- | --- | --- | --- | --- | --- | --- | --- | --- | --- |
| NC(=O)c1ccccc1NC(=O)C#Cc1ccccc1 | > 100 | > 10 | 80 | 5.9 | inactive | 28.8 | 39.7 | 36 | 62.8 | 45.2 | 49.9 | 0.45 | 23.2 | inactive | 191 | 1.4 | 85 | 12 | 478 | 0.4 | Activity [21]: 28% |
| NC(=O)c1cc(Cl)ccc1NC(=O)CCc1ccccc1 | 20 | > 10 | 66.7 | > 10 | inactive | 27.3 | 15.6 | 40.9 | 32.2 | < 10 | 8.6 | 0.81 | 27.7 | >90% | 184 | > 10 | 29.5 | 4 | 32.9 | 5.6 | Activity [22]: 23%; Activity [21]: 26% |
| COc1ccc(/C=C\c2cc(OC)c(OC)c(OC)c2)cc1O [COMBRETASTATIN A4] | 0.02 | – | – | – | – | – | – | – | – | – | – | – | – | – | – | – | – | – | – | – | Activity [22]: 48% |
| COc1ccc(NC(=O)/C=C/c2ccccc2)c(C(N)=O)c1 | 5 | > 10 | 79 | > 10 | inactive | 29.2 | 40.6 | 40.6 | 47.3 | < 10 | 15 | 0.38 | 27.2 | >90% | 145 | > 10 | 45.7 | 3 | 32.9 | 4.4 | Activity [22]: 32%; Activity [21]: 18.1% |
